Format in all cases: cell-based
For one assay, the system named is Pyricularia oryzae. As to the kind of experiment: microbe, parasite or virus in culture. As to conditions: 168 h, read-out: % control compared to the untreated check (radial growth).
The test system of another assay is Alternaria solani. Briefly: Alternaria solani (early blight of tomato/potato) in vitro test, radial growth on Potato Dextrose Agar. The settings on record: 168 h, 300 ppm, seven days, 25° C., read-out: % control compared to the untreated check (radial growth).
A further assay relates to Botrytis cinerea. As to the kind of experiment: Botrytis cinerea (gray mold) in vitro test, radial growth on Potato Dextrose Agar. The settings on record: 168 h, 300 ppm, seven days, 22° C., read-out: % (control) compared to the untreated check (radial growth).
Another assay relates to Rhizoctonia solani. Briefly: Rhizoctonia solani (rice sheath blight/potato black scurf) in vitro test, radial growth on Potato Dextrose Agar. As to conditions: 168 h, 300 ppm, seven days, 25° C., read-out: % control compared to the untreated check (radial growth).

Where a name gives a salt, the structure may show the parent alone.

With `CCN(C)C=Nc1cc(Cl)c(Cc2ccccc2Cl)cc1Cl` [Compound 150, N′-(2,5-dichloro-4-(2-chlorobenzyl)phenyl)-N-ethyl-N-methylformimidamide], the inhibition of growth at 300 ppm in the assay on Pyricularia oryzae and in the assay with Alternaria solani was greater than 75% throughout.
In the case of `CCN(C)C=Nc1cc(C)c(Cc2cccc(F)c2Cl)cc1Cl` [Compound 125, N′-(2-chloro-4-(2-chloro-3-fluorobenzyl)-5-methylphenyl)-N-ethyl-N-methylformimidamide], the inhibition of growth at 300 ppm in the assay on Pyricularia oryzae and in the assay on Alternaria solani was greater than 75% each time.
Take `CCN(C)C=Nc1cc(C)c(C(C#N)c2ccc(C(F)(F)F)cc2)cc1Cl` (stereo not shown) [Compound 187, N′-(2-chloro-4-(cyano(4-(trifluoromethyl)phenyl)methyl)-5-methylphenyl)-N-ethyl-N-methylformimidamide]: the inhibition of growth at 300 ppm with Botrytis cinerea was greater than 80%.
For `CCN(C)C=Nc1cc(C)c(Cc2cc(C(F)(F)F)cc(Cl)c2F)cc1Cl` [Compound 126, N′-(2-chloro-4-(3-chloro-2-fluoro-5-(trifluoromethyl)benzyl)-5-methylphenyl)-N-ethyl-N-methylformimidamide], the inhibition of growth at 300 ppm in the assay on Pyricularia oryzae and in the assay on Alternaria solani was greater than 75% in each case.
Turning to `CCN(C)C=Nc1cc(C(F)(F)F)c(Cc2cccc(F)c2)cc1C1CC1` [Compound 266, N′-(2-cyclopropyl-4-(3-fluorobenzyl)-5-(trifluoromethyl)phenyl)-N-ethyl-N-methylformimidamide], the figures for the inhibition of growth at 300 ppm in the assay with Botrytis cinerea, with Pyricularia oryzae and with Alternaria solani were greater than 80%, greater than 75% and greater than 75%, respectively.
`CCN(C)C=Nc1cc(C)c(Cc2ccccc2C)cc1S(C)(=O)=O` [Compound 234, N-ethyl-N-methyl-N′-(5-methyl-4-(2-methylbenzyl)-2-(methylsulfonyl)phenyl)formimidamide]: the inhibition of growth at 300 ppm with Botrytis cinerea was greater than 80%; with Pyricularia oryzae it was greater than 75%; in the assay with Alternaria solani, greater than 75%.
For `CCN(C)C=Nc1cc(F)c(Cc2ccccc2F)cc1F` [Compound 242, N′-(2,5-difluoro-4-(2-fluorobenzyl)phenyl)-N-ethyl-N-methylformimidamide], the values for the inhibition of growth at 300 ppm in the assay with Botrytis cinerea, with Pyricularia oryzae and in the assay on Alternaria solani were greater than 80%, greater than 75% and greater than 75%, respectively.
For `CCN(C)C=Nc1cc(C(F)(F)F)c(Cc2cccc(C(F)(F)F)c2)cc1F` [Compound 232, N-ethyl-N′-(2-fluoro-5-(trifluoromethyl)-4-(3-(trifluoromethyl)benzyl)phenyl)-N-methylformimidamide], the inhibition of growth at 300 ppm is greater than 80% in the assay on Botrytis cinerea, greater than 80% with Rhizoctonia solani, greater than 75% in the assay on Pyricularia oryzae and greater than 75% in the assay on Alternaria solani.
Consider `CON(C)C=Nc1cc(C)c(Cc2ccccc2F)cc1C` [Compound 61, N′-(4-(2-fluorobenzyl)-2,5-dimethylphenyl)-N-methoxy-N-methylformimidamide], for which the values for the inhibition of growth at 300 ppm in the assay with Rhizoctonia solani, with Pyricularia oryzae and in the assay with Alternaria solani were greater than 80%, greater than 75% and greater than 75%, respectively.
Turning to `CCN(C)C=Nc1cc(C)c(C(C#N)c2cccc(C(F)(F)F)c2)cc1Cl` (stereo not shown) [Compound 272, N′-(2-chloro-4-(cyano(3-(trifluoromethyl)phenyl)methyl)-5-methylphenyl)-N-ethyl-N-methylformimidamide hydrochloride], the inhibition of growth at 300 ppm with Alternaria solani is greater than 75%.
As to `COC=Nc1c(C)cc(Cc2ccc(Br)cc2)c(C)c1Br` [Compound 217, methyl N-(2-bromo-4-(4-bromobenzyl)-3,6-dimethylphenyl)formimidate], in the assay on Botrytis cinerea, the inhibition of growth at 300 ppm was greater than 80%.
As to `CCN(C)C=Nc1cc(C(F)(F)F)c(Cc2cccc(C)c2)cc1F` [Compound 231, N-ethyl-N′-(2-fluoro-4-(3-methylbenzyl)-5-(trifluoromethyl)phenyl)-N-methylformimidamide], the inhibition of growth at 300 ppm in the assay with Rhizoctonia solani is greater than 80%; with Pyricularia oryzae, greater than 75%; in the assay with Alternaria solani, greater than 75%.
As to `Cc1cc(N=CNC#N)c(C)cc1Cc1ccccc1Cl` [Compound 65, N′-(4-(2-chlorobenzyl)-2,5-dimethylphenyl)-N-cyanoformimidamide], the inhibition of growth at 300 ppm in the assay with Botrytis cinerea was greater than 80%.
As for `CCN(C)C=Nc1cc(C)c(Cc2cccc(Cl)c2)cc1S(C)(=O)=O` [Compound 218, N′-(4-(3-chlorobenzyl)-5-methyl-2-(methylsulfonyl)phenyl)-N-ethyl-N-methylformimidamide], in the assay on Alternaria solani, the inhibition of growth at 300 ppm was greater than 75%.
For the compound `CCN(C)C=Nc1cc(C(F)(F)F)c(Cc2ccccc2F)cc1F` [Compound 227, N-ethyl-N′-(2-fluoro-4-(2-fluorobenzyl)-5-(trifluoromethyl)phenyl)-N-methylformimidamide], the inhibition of growth at 300 ppm with Rhizoctonia solani is greater than 80%; in the assay on Pyricularia oryzae, greater than 75%; in the assay on Alternaria solani, greater than 75%.
With `CCN(C)C=Nc1cc(C)c(C(C#N)c2ccc(F)c(Cl)c2)cc1Cl` (stereo not shown) [Compound 190, N′-(2-chloro-4-((3-chloro-4-fluorophenyl)(cyano)methyl)-5-methylphenyl)-N-ethyl-N-methylformimidamide], the inhibition of growth at 300 ppm is greater than 80% with Botrytis cinerea and greater than 75% with Pyricularia oryzae.
For the compound `CCN(C)C=Nc1cc(C)c(C(C#N)c2cccc(C(F)(F)F)c2)cc1Cl` (stereo not shown) [Compound 188, N′-(2-chloro-4-(cyano(3-(trifluoromethyl)phenyl)methyl)-5-methylphenyl)-N-ethyl-N-methylformimidamide], the results for the inhibition of growth at 300 ppm with Botrytis cinerea and in the assay on Pyricularia oryzae were greater than 80% and greater than 75%, respectively.
With `CCN(C)C=Nc1cc(C)c(C(C#N)c2ccc(Cl)cc2)cc1Cl` (stereo not shown) [Compound 193, N′-(2-chloro-4-((4-chlorophenyl)(cyano)methyl)-5-methylphenyl)-N-ethyl-N-methylformimidamide], the inhibition of growth at 300 ppm with Botrytis cinerea was greater than 80%; in the assay with Rhizoctonia solani, greater than 80%; with Pyricularia oryzae, greater than 75%.
As to `CCN(C)C=Nc1cc(Cl)c(C(C(=O)OC)c2cccc(Cl)c2)cc1C` (stereo not shown) [Compound 237, methyl 2-(2-chloro-4-(((ethyl(methyl)amino)methylene)amino)-5-methylphenyl)-2-(3-chlorophenyl)acetate], the inhibition of growth at 300 ppm in the assay on Pyricularia oryzae and in the assay with Alternaria solani was greater than 75% in each case.
Regarding `CCN(C)C=Nc1cc(C)c(C(C#N)c2ccc(C)cc2)cc1Cl` (stereo not shown) [Compound 191, N′-(2-chloro-4-(cyano(p-tolyl)methyl)-5-methylphenyl)-N-ethyl-N-methylformimidamide], the inhibition of growth at 300 ppm with Botrytis cinerea and with Rhizoctonia solani was greater than 80% throughout.
For the compound `CCN(C)C=Nc1c(C)cc(C(F)(F)c2ccccc2)c(C)c1I` [Compound 73, N′-(4-(difluoro(phenyl)methyl)-2-iodo-3,6-dimethylphenyl)-N-ethyl-N-methylformimidamide], in the assay on Pyricularia oryzae, the inhibition of growth at 300 ppm was greater than 75%.
With `CCN(C)C=Nc1cc(C)c(Cc2ccccn2)cc1C` [Compound 202, N′-(2,5-dimethyl-4-(pyridin-2-ylmethyl)phenyl)-N-ethyl-N-methylformimidamide], the inhibition of growth at 300 ppm in the assay on Pyricularia oryzae and in the assay on Alternaria solani was greater than 75% throughout.
On to `CCN(C)C=Nc1cc(C(F)(F)F)c(Cc2cccc(OC(F)(F)F)c2)cc1F` [Compound 233, N-ethyl-N′-(2-fluoro-4-(3-(trifluoromethoxy)benzyl)-5-(trifluoromethyl)phenyl)-N-methylformimidamide], for which the inhibition of growth at 300 ppm was greater than 80% in the assay on Botrytis cinerea, greater than 75% with Pyricularia oryzae and greater than 75% in the assay on Alternaria solani.
Regarding `CCN(C)C=Nc1cc(C(F)(F)F)c(Cc2ccccc2Cl)cc1F` [Compound 226, N′-(4-(2-chlorobenzyl)-2-fluoro-5-(trifluoromethyl)phenyl)-N-ethyl-N-methylformimidamide], the inhibition of growth at 300 ppm in the assay on Rhizoctonia solani is greater than 80%; with Pyricularia oryzae, greater than 75%; in the assay with Alternaria solani it was greater than 75%.
Turning to `Cc1cc(N=CN2CCOCC2)c(Cl)cc1Cc1cccc(F)c1` [Compound 38, N-(2-chloro-4-(3-fluorobenzyl)-5-methylphenyl)-1-morpholinomethanimine], the inhibition of growth at 300 ppm in the assay with Pyricularia oryzae is greater than 75%.
In the case of `CCN(C)C=Nc1cc(C)c(Cc2ccc(C)cc2)cc1S(C)(=O)=O` [Compound 235, N-ethyl-N-methyl-N′-(5-methyl-4-(4-methylbenzyl)-2-(methylsulfonyl)phenyl)formimidamide], the inhibition of growth at 300 ppm with Botrytis cinerea is greater than 80%.
Consider `CCN(C)C=Nc1c(C)cc(Cc2ccccc2C)c(C)c1Br` [Compound 219, N′-(2-bromo-3,6-dimethyl-4-(2-methylbenzyl)phenyl)-N-ethyl-N-methylformimidamide], for which the figures for the inhibition of growth at 300 ppm in the assay with Botrytis cinerea, with Pyricularia oryzae and in the assay with Alternaria solani were greater than 80%, greater than 75% and greater than 75%, respectively.
In the case of `C=C(c1ccc(Br)cc1)c1cc(C)c(N=CN(C)CC)cc1Cl` [Compound 238, N′-(4-(1-(4-bromophenyl)vinyl)-5-chloro-2-methylphenyl)-N-ethyl-N-methylformimidamide], the inhibition of growth at 300 ppm in the assay with Botrytis cinerea was greater than 80%; with Pyricularia oryzae, greater than 75%; in the assay on Alternaria solani, greater than 75%.
On to `CCN(C)C=Nc1cc(Cl)c(Cc2ccc(C)cc2)cc1Cl` [Compound 147, N′-(2,5-dichloro-4-(4-methylbenzyl)phenyl)-N-ethyl-N-methylformimidamide], for which the inhibition of growth at 300 ppm was greater than 80% with Rhizoctonia solani and greater than 75% in the assay on Alternaria solani.
With `CCN(C)C=Nc1cc(C)c(C(C#N)c2cccc(F)c2)cc1Cl` (stereo not shown) [Compound 194, N′-(2-chloro-4-(cyano(3-fluorophenyl)methyl)-5-methylphenyl)-N-ethyl-N-methylformimidamide], in the assay on Pyricularia oryzae, the inhibition of growth at 300 ppm is greater than 75%.

The values above are taken from patent US11155517B2, “4-substituted phenylamine derivatives and their use to protect crops by fighting undesired phytopathogenic micoorganisms” (PI INDUSTRIES LTD., priority 2016, dated 2021).
